Results reported in US20140296065A1, “USE OF 5-FLUOROCYTOSINE AS A FUNGICIDE” (DOW AGROSCIENCES LLC, priority 2008, published 2014).
Like-named read-outs stand apart in the source and are kept apart here.

Legend:
Format in all cases: in vivo
[1] = tested on: Mycosphaerella graminicola; anamorph: Septoria tritici; Bayer code SEPTTR; assay: Leaf Blotch of Wheat fungicidal activity; details: for pest or weed control at 100 ppm: Zymoseptoria tritici
Description: (§1) For the following examples, 5-fluorocytosine or a 5-fluorocytosine derivative was either dissolved in acetone or water, and dilutions were performed to obtain desirable rates. The spray solutions contained either 0.01% triton X-100 or 0.1% Trycol 5941. For high-volume spray, plants were sprayed to run-off using an automated booth sprayer. For a low-volume test, fungicide was applied using a track sprayer with application volume of 200 liters/hectare (L/H).
(§2) Plants were inoculated with fungal pathogens either 3 days before compound application (3-day curative test; 3DC) or 1 day after compound application (1-day protectant test; 1DP).
• 1. Evaluation of Fungicidal Activity: Leaf Blotch of Wheat (Mycosphaerella graminicola; anamorph: Septoria tritici; Bayer code SEPTTR):
Wheat plants (variety Yuma) were grown from seed in a greenhouse in 50% mineral soil/50% soil-less Metro mix until the first leaf was fully emerged, with 7-10 seedlings per pot. These plants were inoculated with an aqueous spore suspension of Septoria tritici either prior to or after fungicide treatments. After inoculation the plants were kept in 100% relative humidity (one day in a dark dew chamber followed by two to three days in a lighted dew chamber) to permit spores to germinate and infect the leaf. The plants were then transferred to a greenhouse for disease to develop. • 2. Evaluation of Fungicidal Activity: Glume Blotch of Wheat (Leptosphaeria nodorum; Bayer code LEPTNO; anamorph: Stagonospora nodorum):
(§3) The following tables present the activity of 5-fluorocytosine (Table I) or a 5-fluorocytosine derivative (Table II) when evaluated in these experiments. The effectiveness of 5-fluorocytosine or 5-fluorocytosine derivative in controlling disease was determined by assessing the severity of disease on treated plants, then converting the severity to percent control based on the level of disease on untreated, inoculated plants. • In each case of Tables I and II the rating scale is as follows: […]

[2] = tested on: Leptosphaeria nodorum; Bayer code LEPTNO; anamorph: Stagonospora nodorum; assay: Glume Blotch of Wheat fungicidal activity; details: 100 ppm
Description: as §1, §2
Wheat plants (variety Yuma) were grown from seed in a greenhouse in 50% mineral soil/50% soil-less Metro mix until the first leaf was fully emerged, with 7-10 seedlings per pot. […]
as §3

[3] = tested on: Cochliobolus sativum; Bayer code COCHSA; anamorph: Helminthosporium sativum; assay: Spot Blotch of Barley fungicidal activity; details: 200 ppm, 1DP (1-day protectant)
Description: For the following examples, 5-fluorocytosine or a 5-fluorocytosine derivative was either dissolved in acetone or water, and dilutions were performed to obtain desirable rates. The spray solutions contained either 0.01% triton X-100 or 0.1% Trycol 5941. For high-volume spray, plants were sprayed to run-off using an automated booth sprayer. For a low-volume test, fungicide was applied using a track sprayer with application volume of 200 liters/hectare (L/H). Plants were inoculated with fungal pathogens either 3 days before compound application (3-day curative test; 3DC) or 1 day after compound application (1-day protectant test; 1DP). […] Evaluation of Fungicidal Activity: Leaf Spot of Sugar Beets (Cercospora beticola; Bayer code CERCBE): The following tables present the activity of 5-fluorocytosine (Table I) or a 5-fluorocytosine derivative (Table II) when evaluated in these experiments. The effectiveness of 5-fluorocytosine or 5-fluorocytosine derivative in controlling disease was determined by assessing the severity of disease on treated plants, then converting the severity to percent control based on the level of disease on untreated, inoculated plants. • In each case of Tables I and II the rating scale is as follows: […]

[4] = tested on: Mycosphaerella fijiensis; BAYER code MYCOFI; assay: Black Sigatoka Disease of Banana fungicidal activity
Description: as §1
Plants were inoculated with fungal pathogens either 3 days before compound application (3-day curative test; 3DC) or 1 day after compound application (1-day protectant test; 1DP). […]
Efficacy against Mycosphaerella fijiensis was tested using newly emerged leaves of field grown banana plants. […] The leaves were subsequently allowed to become infected by natural inoculum, and were visually assessed for percent disease control ˜40-45 days later.
as §3

[5] = tested on: Cercospora beticola; Bayer code CERCBE; assay: Leaf Spot of Sugar Beets fungicidal activity; details: 100 ppm, 1DP (1-day protectant)
[6] = tested on: Glomerella lagenarium; anamorph: Colletotrichum lagenarium; Bayer code COLLLA; assay: Cucumber Anthracnose fungicidal activity; details: 200 ppm, 1DP (1-day protectant)
[7] = tested on: Venturia inaequalis; Bayer code VENTIN; assay: Apple Scab fungicidal activity; details: 75 ppm
[8] = 24 h, SEPTTR, wheat, 100 ppm, One-Day Protectant (1DP), % disease control rating, read-out: SEPTTR 100 PPM 1DP
[9] = 72 h, SEPTTR, wheat, 100 ppm, Three-Day Curative (3DC), % disease control rating, read-out: SEPTTR 100 PPM 3DC
[10] = 24 h, read-out: SEPTTR 100 PPM 1DP
[11] = 72 h, read-out: SEPTTR 100 PPM 3DC

Structure (SMILES) | pest or weed control at 100 ppm [1, 8] [%] | pest or weed control at 100 ppm [1, 9] [%] | other results
Nc1nc(=O)[nH]cc1F [5-FC, 5-Fluorocytosine] |  |  | % Disease Control of 5-FC ([1]; SEPTTR, wheat, 100 ppm, 3DC (3-day curative)): A (76-100); % Disease Control of 5-FC ([1]; SEPTTR, wheat, 200 ppm, 1DP (1-day protectant)): A (76-100); % Disease Control of 5-FC ([2]; 1DP (1-day protectant)): D (0-25); % Disease Control of 5-FC ([2]; 3DC (3-day curative)): C (26-50); % Disease Control of 5-FC [3]: C (26-50); % Disease Control of 5-FC ([4]; 100 ppm, 3DC (3-day curative)): B (51-75); % Disease Control of 5-FC ([4]; 200 ppm, 1DP (1-day protectant)): B (51-75); % Disease Control of 5-FC [5]: A (76-100); % Disease Control of 5-FC [6]: A (76-100); % Disease Control of 5-FC ([7]; 1DP (1-day protectant)): A (76-100); % Disease Control of 5-FC ([7]; 3DC (3-day curative)): A (76-100)
CC(=O)Nc1nc(O)ncc1F [Cmpd 2] | 76 to 100 | 76 to 100 | 
CCC(=O)Nc1nc(O)ncc1F [Cmpd 3] | 76 to 100 | 76 to 100 | 
CC(C)(C)C(=O)Nc1nc(O)ncc1F [Cmpd 4] | 76 to 100 | 76 to 100 | 
Cc1ccc(C(=O)Nc2nc(O)ncc2F)cc1 [Cmpd 5] | 76 to 100 | 51 to 75 | 
O=C(Nc1nc(O)ncc1F)c1ccc(Cl)cc1 [Cmpd 6] | 76 to 100 | 26 to 50 | 
CC(C)COC(=O)Nc1nc(O)ncc1F [Cmpd 7] | 51 to 75 | 51 to 75 | 
CCCCCC(=O)Nc1nc(O)ncc1F [Cmpd 8] | 76 to 100 | 76 to 100 | 
CCCCCCCCCCCC(=O)Nc1nc(O)ncc1F [Cmpd 9] | 76 to 100 | 26 to 50 | 
CCC(CC)C(=O)Nc1nc(O)ncc1F [Cmpd 10] | 26 to 50 | 0 to 25 | 
CCCC(=O)Nc1nc(O)ncc1F [Cmpd 11] | 76 to 100 | 76 to 100 | 
O=C(Nc1nc(O)ncc1F)c1ccccc1 [Cmpd 12] | 76 to 100 | 76 to 100 | 
CC(C)C(=O)Nc1nc(O)ncc1F [Cmpd 13] | 76 to 100 | 76 to 100 | 
COC(=O)Nc1nc(O)ncc1F [Cmpd 14] | 26 to 50 | 0 to 25 | 
Cc1ccc(OC(=O)Nc2nc(O)ncc2F)cc1 [Cmpd 15] |  |  | pest or weed control at 100 ppm [1, 10]: 76 to 100%; pest or weed control at 100 ppm [1, 11]: 51 to 75%
O=C(Nc1nc(O)ncc1F)Oc1ccccc1 [Cmpd 16] |  |  | pest or weed control at 100 ppm [1, 10]: 76 to 100%; pest or weed control at 100 ppm [1, 11]: 76 to 100%
CCONc1nc(O)ncc1F [Cmpd 17] | 26 to 50 | 76 to 100 | 
CNc1nc(O)ncc1F [Cmpd 18] | 0 to 25 | 51 to 75 | 
CCCCCOC(=O)Nc1nc(O)ncc1F [Cmpd 19] | 0 to 25 | 0 to 25 | 
COc1ccc(C(=O)Nc2nc(O)ncc2F)cc1 [Cmpd 20] | 0 to 25 | 0 to 25 | 
COc1cccc(C(=O)Nc2nc(O)ncc2F)c1 [Cmpd 21] | 0 to 25 | 0 to 25 | 
COc1ccccc1C(=O)Nc1nc(O)ncc1F [Cmpd 22] | 0 to 25 | 0 to 25 | 
O=C(Nc1nc(O)ncc1F)c1cccc(Br)c1 [Cmpd 23] | 26 to 50 | 0 to 25 | 
O=C(Nc1nc(O)ncc1F)c1ccccc1Cl [Cmpd 24] | 26 to 50 | 26 to 50 | 
